This note sets out measurements from article PMC6268855, “New Trifluoromethyl Triazolopyrimidines as Anti-Plasmodiumfalciparum Agents” (Molecules, 2012).

Holding throughout (type): cell-based
The subject of data set [1] is human hepatoma cell line (HepG2). Particulars: MTT, 24 h incubation. How it is done:
For in vitro cytotoxicity experiments, the cell monolayer was trypsinized, washed with culture medium, distributed in a flat-bottomed 96-well plate (5 × 10^3 cells/well), and finally incubated for 18 h at 37 °C for cell adherence.
For cytotoxicity testing, we used the (3-(4,5-dimethylthiazol-2-yl)-2,5-diphenyltetrazolium bromide (MTT) assay, performed as described in the literature. The HepG2 cell line was incubated with 20 µL of the compounds in different concentrations (200–25 µg/mL) for 24 h in an atmosphere of 5% CO2 at 37 °C.
For the MTT assay, which evaluates mitochondrial viability, 20 µL of MTT solution (5 mg/mL) was added, and the plates were incubated for an additional 3 h. After incubation, the supernatant was carefully removed from the wells, followed by addition of 100 µL DMSO with thorough mixing. Optical densities at 570 and 630 nm (background) were determined by an ELISA reader.
Cell viability was expressed as the percentage of control absorbance obtained in untreated cells after subtracting the absorbance from appropriate background. Lastly, the minimum lethal dose for 50% of the cells (MLD50) was determined as previously described in the literature. The ratio between MLD50 and drug activity (IC50) in vitro was used to determine the selectivity index (SI).

For data set [2], the system named is Plasmodium falciparum chloroquine-resistant W2 clone. Briefly: anti-HRP2 test on P. falciparum-infected erythrocytes. Particulars: W2 clone; for IC50: Plasmodium falciparum, Erythrocyte, 0.05% parasitemia, 1.5% hematocrit, read-out: IC50 Plasmodium Falciparum Anti-HRP2; for activity class against P. falciparum: class by IC50. How it is done: (§1) Briefly, the parasites were kept as described at 37 °C in human erythrocytes (A^+) in complete medium (RPMI 1640 supplemented with 10% human sera blood group A^+, 2% glutamine, and 7.5% NaHCO3) either in Petri dishes in a candle jar or in 25-cm culture flasks in an environment containing a gas mixture atmosphere (3% O2, 5% CO2 and 91% N2). Before testing, the ring-stage parasites were synchronized by sorbitol; the suspension was adjusted for parasitemia and hematocrit as described below for each test used.
(§2) The effects of compounds against the W2 P. falciparum blood cultures were evaluated through incorporation of ^3H hypoxanthine (Perkin Elmer, Waltham, MA, USA) by the parasites. Alternatively, compound effects were also examined using monoclonal antibodies to a commercially available parasite histidine and alanine-rich protein (HRP2) (MPFM ICLLAB-55A®, MPFG55P ICLLAB®, Immunology Consultants Laboratory Inc. (ICL), Portland, OR, USA), as described previously. The [3H]-hypoxanthine assay was performed with 1% of parasitemia and 1% of hematocrit, and the level of isotope incorporation was read in a beta-counter (Perkin Elmer). The anti-HRP2 test was performed with 0.05% parasitemia and 1.5% hematocrit, and the quantification of protein was determined using a specific read at 450 nm in a spectrophotometer (SpectraMax340PC^384, Molecular Devices, Sunnyvale, CA, USA). Drug activities were expressed by the half-maximal inhibitory dose (IC50) compared to the drug-free controls and estimated using the curve-fitting software Origin 8.0 (OriginLab Corporation, Northampton, MA, USA).

Data set [3] shares this test system. Description: [3H]-hypoxanthine incorporation assay on P. falciparum-infected erythrocytes. Particulars: Erythrocyte, W2 clone, 1% parasitemia, 1% hematocrit, read-out: IC50 Plasmodium Falciparum Hypoxanthine. How it is done:
as §1, §2

Structures are written as SMILES.

One may read the IC50 as the point on the concentration scale where inhibition reaches its midpoint. `Cc1cc(-n2cncn2)n2nc(C(F)(F)F)nc2n1` [Compound 26, 5-Methyl-7-(1H-1,2,4-triazol-1-yl)-2-(trifluoromethyl)[1,2,4]triazolo[1,5-a]pyrimidine]: the “MDL50 HepG2” value in data set [1] was <93 µM. In addition, in data set [2], the IC50 turned out to be 29.7 µM and the “activity class against P. falciparum” value is recorded as “Inactive”. For the same compound, in data set [3], the IC50 stood at 33.5 ± 14.9 µM.
In the case of `Cc1cc(-n2cccc2)n2nc(C(F)(F)F)nc2n1` [Compound 27, 5-Methyl-7-(1H-pyrrol-1-yl)-2-(trifluoromethyl)[1,2,4]triazolo[1,5-a]pyrimidine], in data set [1], the “MDL50 HepG2” value is given as >749 µM. In addition, the IC50 in data set [2] turned out to be 97.4 ± 22.5 µM; in data set [3], 78.7 ± 7.49 µM. The “activity class against P. falciparum” value in data set [2] is “Inactive”.
As for `CCN(CC)CCCC(C)Nc1cc(C)nc2ncnn12` (stereo not shown) [Compound 28, 5-Methyl-7-N'-(N,N-diethylpentane-1,4-diamine)[1,2,4]triazolo[1,5-a]pyrimidine], the “MDL50 HepG2” value in data set [1] was >689 µM. Moreover, in data set [2], the concentration for half-maximal inhibition (IC50) was > 172 µM and the “activity class against P. falciparum” value is given as “Inactive”. Also, the IC50 in data set [3] is > 172 µM.
Consider `CCN(CC)CCCC(C)Nc1cc(C)nc2nc(C(F)(F)F)nn12` (stereo not shown) [Compound 29, 5-Methyl-7-N'-(N,N-diethylpentane-1,4-diamine)-2-(trifluoromethyl)[1,2,4]triazolo[1,5-a]pyrimidine], for which the “MDL50 HepG2” value in data set [1] is reported as >558 µM. Also, in data set [2], the IC50 is 73 ± 17 µM and the “activity class against P. falciparum” value is listed as “Inactive”. Further, in data set [3], the half-maximal inhibitory concentration (IC50) worked out at 39.1 µM.
